Measurements reported in ChEMBL document CHEMBL4177526, “Discovery and structure activity relationship of the first potent cryptosporidium FIKK kinase inhibitor” (Bioorg Med Chem, 2017).

Legend:
[1] = tested on: TGF-beta receptor type-1 (Homo sapiens), P36897 [T204D]; experiment: Inhibition of human TGFbetaR1 T204D mutant (200 to 501 residues) at 500 nM in presence of 33P-ATP by filter binding assay relative to control
[2] = target: Eukaryotic translation initiation factor 2-alpha kinase 3 (Homo sapiens) (UniProt Q9NZJ5); experiment: Inhibition of human EIF2AK3 (536 to 1116 residues) assessed as residual activity at 500 nM in presence of 33P-ATP by filter binding assay relative to control
[3] = target: Serine/threonine-protein kinase pim-1 (Homo sapiens) (UniProt P11309); experiment: Inhibition of human PIM1 (2 to 313 residues) assessed as residual activity at 500 nM in presence of 33P-ATP by filter binding assay relative to control
[4] = target: Death-associated protein kinase 1 (Homo sapiens) (UniProt P53355); experiment: Inhibition of human DAPK1 (1 to 363 residues) assessed as residual activity at 500 nM in presence of 33P-ATP by filter binding assay relative to control
[5] = target: Serine/threonine-protein kinase 16 (Homo sapiens) (UniProt O75716); experiment: Inhibition of human MPSK1 (1 to 305 residues) assessed as residual activity at 500 nM in presence of 33P-ATP by filter binding assay relative to control
[6] = target: Interleukin-1 receptor-associated kinase 1 (Homo sapiens) (UniProt P51617); experiment: Inhibition of human IRAK1 (1 to 712 residues) assessed as residual activity at 500 nM in presence of 33P-ATP by filter binding assay relative to control
[7] = target: Mitogen-activated protein kinase 12 (Homo sapiens) (UniProt P53778); experiment: Inhibition of human p38gamma (1 to 367 residues) assessed as residual activity at 500 nM in presence of 33P-ATP by filter binding assay relative to control
[8] = target: Serine/threonine-protein kinase 3 (Homo sapiens) (UniProt Q13188); experiment: Inhibition of human MST2 (2 to 491 residues) assessed as residual activity at 500 nM in presence of 33P-ATP by filter binding assay relative to control
[9] = target: Mitogen-activated protein kinase kinase kinase 5 (Homo sapiens) (UniProt Q99683); experiment: Inhibition of human ASK1 (670 to 950 residues) assessed as residual activity at 500 nM in presence of 33P-ATP by filter binding assay relative to control
TAK1/TAB1 (Homo sapiens) = TAK1/TAB1 (Homo sapiens) (UniProt Q15750+O43318); experiment: Inhibition of human TAK1 (1 to 303 residues)/TAB1 (437 to 504 residues) assessed as residual activity at 500 nM in presence of 33P-ATP by filter binding assay relative to control; type: protein-complex assay
[10] = target: Fibroblast growth factor receptor 1 (Homo sapiens) (UniProt P11362); experiment: Inhibition of human FGFR1 (400 to 820 residues) assessed as residual activity at 500 nM in presence of 33P-ATP by filter binding assay relative to control
[11] = target: Calcium/calmodulin-dependent protein kinase kinase 2 (Homo sapiens) (UniProt Q96RR4); experiment: Inhibition of human CAMKKbeta (1 to 541 residues) assessed as residual activity at 500 nM in presence of 33P-ATP by filter binding assay relative to control
[12] = target: Mitogen-activated protein kinase 3 (Homo sapiens) (UniProt P27361); experiment: Inhibition of human ERK1 (2 to 379 residues) assessed as residual activity at 500 nM in presence of 33P-ATP by filter binding assay relative to control
[13] = Ratio of EC50 for antiparasitic activity against Cryptosporidium parvum Iowa oocysts infected in human HCT8 cells to IC50 for Cryptosporidium parvum CDPK1; type: functional
[14] = target: Dual specificity mitogen-activated protein kinase kinase 6 (Homo sapiens) (UniProt P52564); experiment: Inhibition of human MKK6 (2 to 334 residues) assessed as residual activity at 500 nM in presence of 33P-ATP by filter binding assay relative to control
[15] = target: serine/threonine-protein kinase D1 (Homo sapiens) (UniProt Q15139); experiment: Inhibition of human PKD1 (2 to 912 residues) at 500 nM in presence of 33P-ATP by filter binding assay relative to control
[16] = tested on: RAC-alpha serine/threonine-protein kinase (Homo sapiens), P31749 [S473D]; experiment: Inhibition of human PKBalpha S473D mutant (118 to 480 residues) assessed as residual activity at 500 nM in presence of 33P-ATP by filter binding assay relative to control
[17] = target: Interleukin-1 receptor-associated kinase 4 (Homo sapiens) (UniProt Q9NWZ3); experiment: Inhibition of human IRAK4 (14 to 460 residues) assessed as residual activity at 500 nM in presence of 33P-ATP by filter binding assay relative to control
[18] = target: Serine/threonine-protein kinase Pink1, mitochondrial (Tribolium castaneum) (UniProt D6WMX4); experiment: Inhibition of Tribolium castaneum PINK1 (1 to 570 residues) assessed as residual activity at 500 nM in presence of 33P-ATP by scintillation counting method relative to control
[19] = target: Serine/threonine-protein kinase pim-3 (Homo sapiens) (UniProt Q86V86); experiment: Inhibition of human PIM3 (2 to 326 residues) assessed as residual activity at 500 nM in presence of 33P-ATP by filter binding assay relative to control
[20] = target: CDK2/Cyclin A2 (Homo sapiens) (UniProt P24941+P20248); experiment: Inhibition of human CDK2 (2 to 298 residues)/cyclinA2 (171 to 432 residues) assessed as residual activity at 500 nM in presence of 33P-ATP by filter binding assay relative to control; type: protein-complex assay
[21] = target: Mitogen-activated protein kinase kinase kinase 1 (Homo sapiens) (UniProt Q13233); experiment: Inhibition of human MEKK1 (877 to 1563 residues) assessed as residual activity at 500 nM in presence of 33P-ATP by filter binding assay relative to control
[22] = target: Serine/threonine-protein kinase tousled-like 1 (Homo sapiens) (UniProt Q9UKI8); experiment: Inhibition of human TLK1 (1 to 766 residues) assessed as residual activity at 500 nM in presence of 33P-ATP by filter binding assay relative to control
[23] = target: Serine/threonine-protein kinase Nek6 (Homo sapiens) (UniProt Q9HC98); experiment: Inhibition of human NEK6 (8 to 313 residues) assessed as residual activity at 500 nM in presence of 33P-ATP by filter binding assay relative to control
[24] = target: Protein kinase C zeta type (Homo sapiens) (UniProt Q05513); experiment: Inhibition of human PKCzeta (2 to 592 residues) assessed as residual activity at 500 nM in presence of 33P-ATP by filter binding assay relative to control

inhibition [1]: 86% | Activity [2]: 112% | Activity [3]: 97% | Activity [5]: 99% | Activity [6]: 109% | Activity [7]: 116% | Activity [8]: 109% | Activity [9]: 106% | Activity (TAK1/TAB1 (Homo sapiens)): 40% | Activity [10]: 85% | Activity [11]: 124% | Activity [12]: 106% | Activity [14]: 96% | inhibition [15]: 91% | Activity [16]: 115% | Activity [17]: 110% | Activity [18]: 119% | Activity [19]: 91% | Activity [20]: 104% | Activity [21]: 119% | Activity [22]: 121% | Activity [23]: 108% | Activity [24]: 123%
Structure (SMILES): Cc1cccc(-c2nc(N)sc2-c2ccc3ncccc3n2)c1
Activity [4]: 96% | Ratio [13]: 14
